Columns and labels:
Type in all cases: cell-based, human
HEL cells [1] = assay: Megakaryocyte differentiation, CD41/CD61 expression over time by FACS, HEL cells; conditions: 5 μg/ml, 5 days
Method: HEL cells were aliquoted at a density of 3×10^5 cells per well in 6-well plates and treated with 5 μg/ml of (R)-NALPCE, followed by incubation for 5 days. After centrifugation (1,000 rpm, 5 min), the cell pellets thus obtained were washed three times with 0.01% bovine serum albumin (BSA) in PBS. The cells were incubated with 10 μl of anti-CD41-fluorescein-5-isothiocyanate (FITC) (Dako Chemicals, Carpenteria, Calif.) or 20 μl of anti-CD61-phycoerythrin (PE) (BD Pharmingen) in 200 μl 0.01% bovine serum albumin (BSA)-PBS at 4° C. for 50 min with spinning to realize homogeneous fluorescent staining. After centrifugation (1,000 rpm, 10 min), the cell pellets thus obtained were rinsed three times with 0.01% bovine serum albumin (BSA)-PBS. Fluorescence was analyzed on a fluorescence-activated cell sorter (FACS) (Aria) using a Cellquest program.

HEL cells [2] = assay: Cell differentiation of HEL cells, optical microscopy; conditions: 5 μg/ml (R)-NALPCE, 10 nmole PMA or 50 ng/ml TPO, 5 days
Method: HEL cells were aliquoted at a density of 3×10^5 cells per well in 6-well plates and treated with 5 μg/ml of (R)-NALPCE, 10 nmole of PMA, or 50 ng/ml of TPO, followed by incubation in a day-dependent manner for 5 days. They were observed under an optical microscope with 200× magnification.

K562 cells = assay: Cell differentiation of K562 cells on OP9 cells, optical microscopy
Method: A stromal line of OP9 cells derived from […] was aliquoted at a density of 1×10^5 cells in 6-well plates and incubated for 24 hrs. After the OP9 cells were uniformly attached onto the bottom of the plates, K562 cells were layered at a density of 1×10^5 cells on the OP9 cells in 6-well plates. The cells were treated with 40 μg/ml of (R)-NALPCE, or 500 pmole, 10 nmole or 50 nmole of PMA before incubation for 5 days. They were observed under an optical microscope with 200× magnification.

## CCCCCCCCCCCCCCCCCC(=O)NC(COP(=O)([O-])OCC[N+](C)(C)C)C(=O)OC [(R)-NALPCE, N-steroyl-O-phosphocholine-D-serine methyl ester]
HEL cells [1]
  CD41 and CD61 expression rate: increase in expression rate in a day-dependent manner
HEL cells [2]
  cell morphology (optical microscope): increase in size in a day-dependent manner
K562 cells; (R)-NALPCE with OP9 cells, PMA treatment
  production or secretion of thrombocytes by differentiated megakaryocytes: released a lot of thrombocytes
K562 cells; K562 cells on OP9 cells, 40 μg/ml, 5 days
  cell morphology (optical microscope): increased in size in a time-dependent manner, and anucleate cells such as thrombocytes were observed
